Each molecule was assayed against T1, HCV polymerase (Hepatitis C virus genotype 1b, UniProt Q9WMX2) (assay: biochemical). Conditions: NS5B polymerase IC50 μM, polymerase assay of Biological Example 1.
T1 construct: (His)6 (C)

Compound | IC50 [µM]
CCOP(C)(=O)CCCCN(c1nc2oc(-c3ccc(C)cc3)c(C(=O)NC)c2cc1I)S(C)(=O)=O (stereo not shown) [Example 23.9995, ethyl 4-(N-(5-iodo-3-(methylcarbamoyl)-2-p-tolylfuro[2,3-b]pyridin-6-yl)methylsulfonamido)butyl (methyl)phosphinate] | 0.017
CCOP(C)(=O)CCCCCN(c1nc2oc(-c3ccc(C)cc3)c(C(=O)NC)c2cc1I)S(C)(=O)=O (stereo not shown) [Example 23.9994, ethyl 5-(N-(5-iodo-3-(methylcarbamoyl)-2-p-tolylfuro[2,3-b]pyridin-6-yl)methylsulfonamido)pentyl (methyl)phosphinate] | 0.038

Same assay, conditions: polymerase assay of Biological Example 1; read-out: NS5B polymerase IC50

IC50 [µM] | Compound
0.012 | CCc1cc2c(C(=O)NC)c(-c3ccc(F)cc3)oc2nc1N(CCCCC(=O)O)S(C)(=O)=O [Example 21.2, 5-(N-(5-ethyl-2-(4-fluorophenyl)-3-(methylcarbamoyl)furo[2,3-b]pyridin-6-yl)methylsulfonamido)pentanoic acid]
0.004 | CNC(=O)c1c(-c2ccc(C)cc2)oc2nc(N(CCCBr)S(C)(=O)=O)c(C3CC3)cc12 [Example 29.999, 6-(N-(3-bromopropyl)methylsulfonamido)-5-cyclopropyl-N-methyl-2-p-tolylfuro[2,3-b]pyridine-3-carboxamide]
0.079 | CCc1cc2c(C(=O)NC)c(-c3ccc(F)cc3)oc2nc1N(CCC[S+](C)[O-])S(C)(=O)=O (stereo not shown) [Example 23.999, 5-ethyl-2-(4-fluorophenyl)-N-methyl-6-(N-(3-(methylsulfinyl)propyl)methylsulfonamido)furo[2,3-b]pyridine-3-carboxamide]
0.005 | CNC(=O)c1c(-c2ccc(C)cc2)oc2nc(N(CCCC(CC#N)C(=O)OC)S(C)(=O)=O)c(C3CC3)cc12 (stereo not shown) [Example 29.9998, methyl 2-(cyanomethyl)-5-(N-(5-cyclopropyl-3-(metfiylcarbamoyl)-2-p-tolylfuro[2,3-b]pyridin-6-yl)methylsulfonamido) pentanoate]
0.035 | CCc1cc2c(C(=O)NC)c(-c3ccc(F)cc3)oc2nc1N(CCCCS(=O)(=O)C(F)(F)F)S(C)(=O)=O [Example 23.97, 5-ethyl-2-(4-fiuorophenyl)-N-methyl-6-(N-(4-(trifluoromethylsulfonyl)butyl)methylsulfonamido) furo[2,3-b]pyridine-3-carboxamide]
0.002 | CNC(=O)c1c(-c2ccc(C)cc2)oc2nc(N(CCCCCCCCCC(=O)O)S(C)(=O)=O)c(C3CC3)cc12 [Example 29.993, 10-(N-(5-cyclopropyl-3-(methylcarbamoyl)-2-p-tolylfuro[2,3-b]pyridin-6-yl)methylsulfonamido) decanoic acid]
0.005 | CNC(=O)c1c(-c2ccc(C)cc2)oc2nc(N(CCOCCCC(=O)O)S(C)(=O)=O)c(C3CC3)cc12 [Example 23.999998, 4-(2-(N-(5-cyclopropyl-3-(methylcarbamoyl)-2-p-tolylfuro[2,3-b]pyridin-6-yl)methylsulfonamido)ethoxy)butanoic acid]
0.006 | CNC(=O)c1c(-c2ccc(C)cc2)oc2nc(N(CC3CCC(=O)O3)S(C)(=O)=O)c(C3CC3)cc12 (stereo not shown) [Example 29.994, 5-cyclopropyl-N-methyl-6-(N-((5-oxotetrahydrofuran-2-yl)methyl)methylsulfonamido)-2-p-tolylfuro[2,3-b]pyridine-3-carboxamide]
0.191 | CCc1cc2c(C(=O)NC)c(-c3ccc(F)cc3)oc2nc1N(CCCOc1ccccc1C#N)S(C)(=O)=O [Example 21.5, 6-(N-(3-(2-cyanophenoxy)propyl)methylsulfonamido)-5-ethyl-2-(4-fluorophenyl)-N-methylfuro[2,3-b]pyridine-3-carboxamide]
0.026 | CCc1ccc(-c2oc3nc(N(CCCCCO)S(C)(=O)=O)c(I)cc3c2C(=O)NC)cc1 [Example 23.9993, 2-(4-ethylphenyl)-6-(N-(5-hydroxypentyl)methylsulfonamido)-5-iodo-N-methylfuro[2,3-b]pyridine-3-carboxamide]
0.002 | CCc1ccc(-c2oc3nc(N(CCCC4(C(=O)O)CC4)S(C)(=O)=O)c(C4CC4)cc3c2C(=O)NC)cc1 [Example 29.9993, 1-(3-(N-(5-cyclopropyl-2-(4-ethylphenyl)-3-(methylcarbamoyl)furo[2,3-b]pyridin-6-yl)methylsulfonamido)propyl) cyclopropanecarboxylic acid]
0.003 | CNC(=O)c1c(-c2ccc(C)cc2)oc2nc(N(CCCCc3nn[nH]n3)S(C)(=O)=O)c(C3CC3)cc12 [Example 29.93, 6-(N-(4-(2H-tetrazol-5-yl)butyl)methylsulfonamido)-5-cyclopropyl-N-methyl-2-p-tolylfuro[2,3-b]pyridine-3-carboxamide]
0.002 | CCc1ccc(-c2oc3nc(N(CCCC4(C(=O)O)CCC4)S(C)(=O)=O)c(C4CC4)cc3c2C(=O)NC)cc1 [Example 29.91, 1-(3-(N-(5-cyclopropyl-2-(4-ethylphenyl)-3-(methylcarbamoyl)furo[2,3-b]pyridin-6-yl)methylsulfonamido)propyl) cyclobutanecarboxylic acid]
0.046 | C=C1OCCN(S(C)(=O)=O)c2nc3oc(-c4ccc(F)cc4)c(C(=O)NC)c3cc21 [Example 36.1, 2-(4-Fluoro-phenyl)-9-methanesulfonyl-5-methylene-5,7,8,9-tetrahydro-1,6-dioxa-9,10-diaza-cyclohepta[f]indene-3-carboxylic acid methylamide]
0.002 | CNC(=O)c1c(-c2ccc(C)cc2)oc2nc(N(CCCC3(C(=O)O)CCN(C(C)=O)CC3)S(C)(=O)=O)c(C3CC3)cc12 [Example 29.99992, 1-acetyl-4-(3-(N-(5-cyclopropyl-3-(methylcarbamoyl)-2-p-tolylfuro[2,3-b]pyridin-6-yl)methylsulfonamido)propyl) piperidine-4-carboxylic acid]
0.184 | CCc1cc2c(C(=O)NC)c(-c3ccc(F)cc3)oc2nc1N(CCCN(C)C(=O)c1ccccc1)S(C)(=O)=O [Example 23.998, 5-ethyl-2-(4-fluorophenyl)-N-methyl-6-(N-(3-(N-methylbenzamido)propyl)methylsulfonamido)furo[2,3-b]pyridine-3-carboxamide]
0.015 | C=C(CCCN(c1nc2oc(-c3ccc(C)cc3)c(C(=O)NC)c2cc1C1CC1)S(C)(=O)=O)C(=O)OC [Example 29.9997, methyl 5-(N-(5-cyclopropyl-3-(methylcarbamoyl)-2-p-tolylfuro[2,3-b]pyridin-6-yl)methylsulfonamido)-2-methylenepentanoate]
0.006 | CNC(=O)c1c(-c2ccc(C)cc2)oc2nc(N(CCC[C@H](COC)C(=O)N3C(=O)OC[C@@H]3Cc3ccccc3)S(C)(=O)=O)c(C3CC3)cc12 [Example 47.72]

The remaining lines, values behind:

Compound | IC50 [µM]
C=CCc1cc2c(C(=O)NC)c(-c3ccc(F)cc3)oc2nc1N(C)S(C)(=O)=O [Example 4.2, 5-allyl-2-(4-fluorophenyl)-N-methyl-6-(N-methylmethylsulfonamido)furo[2,3-b]pyridine-3-carboxamide] | 0.128
CNC(=O)c1c(-c2ccc(F)cc2)oc2nc(N(C)S(C)(=O)=O)c(I)cc12 [Example 2, 2-(4-Fluoro-phenyl)-5-iodo-6-(methanesulfonyl-methyl-amino)-furo[2,3-b]pyridine-3-carboxylic acid methylamide] | 0.163
CNC(=O)c1c(-c2ccc(F)cc2)oc2nc(N(C)S(C)(=O)=O)c(CCCCC(=O)N3CCC[C@H]3C(=O)OC)cc12 [Example 4.6, (S)-methyl 1-(5-(2-(4-fluorophenyl)-3-(methylcarbamoyl)-6-(N-methylmethylsulfonamido)furo[2,3-b]pyridin-5-yl)pentanoyl)pyrrolidine-2-carboxylate] | 0.113
CNC(=O)c1c(-c2ccc(F)cc2)oc2nc3c(cc12)C(C)(O)CCCN3S(C)(=O)=O (stereo not shown) [Example 32, 2-(4-Fluoro-phenyl)-5-hydroxy-9-methanesulfonyl-5-methyl-6,7,8,9-tetrahydro-5H-1-oxa-9,10-diaza-cyclohepta[f]indene-3-carboxylic acid methylamide] | 0.651
CCc1cc2c(C(=O)NC)c(-c3ccc(F)cc3)oc2nc1N(CCCCl)S(C)(=O)=O [Example 22.997, 6-(N-(3-chloropropyl)methylsulfonamido)-5-ethyl-2-(4-fluorophenyl)-N-methylfuro[2,3-b]pyridine-3-carboximide] | 0.083
CNC(=O)c1c(-c2ccc(F)cc2)oc2nc(N(Cc3cccc(C(N)=O)c3)S(C)(=O)=O)c(I)cc12 [Example 18.8, 6-(N-(3-carbamoylbenzyl)methylsulfonamido)-2-(4-fluorophenyl)-5-iodo-N-methylfuro[2,3-b]pyridine-3-carboxamide] | 0.051
CNC(=O)c1c(-c2ccc(F)cc2)oc2nc(N(CCCCC#N)S(C)(=O)=O)c(I)cc12 [Example 18.9, 6-(N-(4-cyanobutyl)methylsulfonamido)-2-(4-fluorophenyl)-5-iodo-N-methylfuro[2,3-b]pyridine-3-carboxamide] | 0.109
CNC(=O)c1c(-c2ccc(C)cc2)oc2nc(N(CCCC3CCCC3C(=O)O)S(C)(=O)=O)c(I)cc12 (stereo not shown) [Example 18.9991, 2-(3-(N-(5-iodo-3-(methylcarbamoyl)-2-p-tolylfuro[2,3-b]pyridin-6-yl)methylsulfonamido)propyl)cyclopentanecarboxylic acid] | 0.005
CNC(=O)c1c(-c2ccc(F)cc2)oc2nc(N(CCCC(C)O)S(C)(=O)=O)c(I)cc12 (stereo not shown) [Example 18.998, 2-(4-fluorophenyl)-6-(N-(4-hydroxypentyl)methylsulfonamido)-5-iodo-N-methylfuro[2,3-b]pyridine-3-carboxamide] | 0.039
CNC(=O)c1c(-c2ccc(C)cc2)oc2nc(N(CCCC(O)C(C)(C)C(=O)O)S(C)(=O)=O)c(C3CC3)cc12 (stereo not shown) [Example 50, 6-(N-(5-cyclopropyl-3-(methylcarbamoyl)-2-p-tolylfuro[2,3-b]pyridin-6-yl)methylsulfonamido)-3-hydroxy-2,2-dimethylhexanoic acid] | 0.003
CNC(=O)c1c(-c2ccc(C)cc2)oc2nc(N(C)S(C)(=O)=O)c(CCCO)cc12 [Example 9.2, 5-(3-hydroxypropyl)-N-methyl-6-(N-methylmethylsulfonamido)-2-p-tolylfuro[2,3-b]pyridine-3-carboxamide] | 0.082

Reference: patent US20120015907A1, “Furopyridine compounds and uses thereof” (NOVARTIS AG, priority 2010, published 2012)
